Like-named read-outs stand apart in the source and are kept apart here. Where no end group is shown, it is not given here. [ ]: non-standard residue; d: D form.
Key:
[1] = tested on: BWF1 mice; assay: FACS of CD8+ Foxp3+ T cells in mesenteric nodes and spleen after peptide gavage; type: in vivo
Procedure: Lastly, we synthesized the D-form of pCons, for the purpose of administering it orally since D-forms are resistant to acid degradation. […] Specifically, studies have been completed in which BWF1 mice were fed 5 days a week out of every 30 days saline, low dose pCons (25 ug), middle dose (100 ug) or high dose (250 ug) by gavage. Both D and L-forms are being studied. Most of those mice were sacrificed to study characteristics of cells in mesenteric lymph nodes and spleens. Observations from these studies are disclosed in the following paragraphs.
First, we observed that CD8+ T cells that express Foxp3 (known to be inhibitory T cells for SLE) were induced in mesenteric nodes and spleen cells by the highest dose (250 ug) of D-peptide and by the middle dose (100 ug) and high dose of L-peptide. Thus the administration of low/middle dose D-peptide and of low dose L-peptide was not effective. Data were obtained by FACS analysis of total node populations, with percent of CD8+ Foxp3+ cells in untreated mice <1%, compared to 3-6% of total CD8+ cells in the effective doses of peptide. These changes are high enough to be clinically significant according to our earlier data with L-peptide given i.v.

[2] = tested on: BWF1 mice; settings: cited from earlier work
[3] = tested on: peripheral blood mononuclear cells from patients with SLE; assay: expansion of CD4+ CD25hi T cells in SLE patient cells cultured with peptide for 5 days; type: cell-based, human; settings: for expansion of CD4+ CD25hi (Foxp3+) regulatory T cell populations: SLE patient cells in culture, 5 days
Procedure: In these experiments, pCons and other stimulatory (peptides B and D) peptides and non-stimulatory peptides (peptide A) that are wild peptides from human monoclonal antibodies to DNA were incubated with peripheral blood mononuclear cells from patients with SLE.
In FIGS. 6 and 7, we show data on the ability of L-pCons to mature the CD4+ CD25hiFoxp3+ natural regulatory cells in patients with SLE. In these experiments, pCons and other stimulatory (peptides B and D) peptides and non-stimulatory peptides (peptide A) that are wild peptides from human monoclonal antibodies to DNA were incubated with peripheral blood mononuclear cells from patients with SLE. […] Such cells are thought to be regulatory T cells.
Next, we studied the ability of L-pCons to induce Treg in T cells from the peripheral blood of patients with SLE (36 patients, 32 healthy controls). Stimulatory control peptides B and D are wild peptides from human mAb anti-DNA; peptide A is a nonstimulatory negative control (see, e.g. Kaki et al., Lupus 2004; 13:490-500). […] These expanded cells were regulatory (FIG. 8): they suppressed proliferation and IFNg synthesis by autologous CD4+ CD25− cells in culture. Numbers of CD4+ Foxp3+ T cells were also expanded and silencing of Foxp3 by transfection with specific siRNA for Foxp3 abrogated the suppressive capacity of the induced T reg by ½ (3rd panel, FIG. 8). […] Patients who were anti-DNA negative were unlikely to respond to pCons with expansion of Treg (see, e.g. La Cava et al, Lupus. 2008; 17(5):421-5).

[4] = tested on: BWF1 mice; assay: survival and clinical disease in BWF1 mice given L-pCons intravenously; type: in vivo; settings: 1 mg i.v. monthly from age 10 weeks
Procedure: FIG. 3 provides a graph of data showing the suppression of clinical disease that occurs in BWF1 mice treated monthly from age 10 weeks with 1 mg of L-pCons administered intravenously.
For tolerance induction, ten-to-twelve week-old BWF1 mice received a single i.v. dose of 1 mg of one of the peptides, dissolved in saline, as reported previously (see, e.g. Singh et al., J Clin Invest 1995; 96:2990-6). Controls in selected experiments were either treated with saline or control peptides.
Using 50% mortality times, the lifespan is prolonged 30-32 weeks. […] A similar study has been started with D-pCons administered orally; results are anticipated in 30 weeks. Serum is obtained at regular intervals for anti-DNA testing; urine is tested for proteinuria monthly (when 2+ appears mice are tested weekly), and survival is measured daily.
Since this increase in survival was small (6 weeks), we developed an algorithm based on 435 VH sequence peptides to create an artificial 15-mer peptide containing amino acid sequences which bind to I-Ed (one of the MHC Class II molecules in BWF1) and to be stimulatory for BWF1 T cells—which we called pConsensus or pCons. […] The control artificial 15-mer, pNegative (pNeg) was constructed to bind I-Ed but not stimulate T cells. […]

[5] = high dose i.v. tolerogen once a month, BWF1 females

Sequence	induction of CD8+ T cells that express Foxp3 ([1]; low dose 25 ug by gavage)	induction of CD8+ T cells that express Foxp3 ([1]; middle dose 100 ug by gavage)	appearance of anti-DNA, anti-phospholipid, and proteinuria [2, 5]	prolongation of survival [2, 5] [week]	prolongs survival ([2]; started after nephritis and anti-DNA antibodies have appeared)	prolongs survival ([2]; started prior to disease onset)	patients showing expansion of CD4+ CD25hi cells to more than the usual 2-3% of peripheral blood MNC ([3]; 5 days in culture)	expansion of CD4+ CD25hi (Foxp3+) regulatory T cell populations [3]	expansion of CD4+ CD25hi (Foxp3+) regulatory T cell populations ([3]; listed as pCons)	appearance of IgG anti-DNA in serum and of nephritis [4]	lifespan prolonged, using 50% mortality times [4]
FIEWNKLRFRQGLEW ([dF][dI][dE][dW][dN][dK][dL][dR][dF][dR][dQ]G[dL][dE][dW]) [D-pCons]	not effective	not effective	–	–	–	–	–	–	–	–	–
FIEWNKLRFRQGLEW [L-pCons]	–	–	significant delay	24	3-4 months	4-5 months	Thirteen of 23	expand significantly	expanded CD4+ CD25hi populations in some patients	significant delay	30-32 weeks

— US8492347B2, “Peptide for induction of immune tolerance as treatment for systemic lupus erythematosus” (The Regents of the University of California, priority 2007, dated 2013)
